Results: US6964966B2, “Generation triple-targeting, chiral, broad-spectrum antimicrobial 7-substituted piperidino-quinolone carboxylic acid derivatives, their preparation, compositions and use as medicaments” (Wockhardt Limited, priority 2001, dated 2005)
Converted amounts (≈) assume the structure as drawn. Read-outs that look alike come from different tables or passages of the source.

Tests used:
[1] = test system: Fluoroquinolone Sensitive Strains; assay: In-vitro antimicrobial test, MIC by two-fold serial agar dilution (NCCLS): fluoroquinolone sensitive strains (Table 17); type: cell-based
Experimental: (§1) The test method was in accordance with the standard NCCLS protocol (Methods for Dilution Antimicrobial Susceptibility Tests for Bacteria that grow Aerobicially, Approved Standards, M7-A5, Fifth Edition, January 2000).
(§2) The antibacterial activities (minimum inhibitory concentration: MIC, mcg/ml) were determined by using the two-fold serial agar dilution method recommended by NCCLS. The media used for preculture and main culture were Tryptic Soya broth (Difco) and Mueller Hinton medium (Difco), respectively. The Mueller Hinton agar was supplemented with 5% sheep blood for streptococci. Overnight cultures were diluted with buffered saline (pH 7.2) to the final cell density of 5×10^6-10^7 CFU/ml, and each bacterial suspension was applied with a replicator (Denley's multipoint inoculator, UK) onto a series of Mueller-Hinton agar plates containing antibacterial agents at various concentrations. Final inoculum was approximately 10^4 CFU/spot. The plates were incubated for 18 hrs at 37° C. The MIC was defined as the lowest concentration of an antibacterial agent that inhibits the development of visible microbial growth on agar.

[2] = test system: Fluoroquinolone-Resistant Strains; assay: In-vitro antimicrobial test, MIC by agar dilution (NCCLS): fluoroquinolone-resistant strains (Table 18); type: cell-based
Experimental: as §1, §2

[3] = test system: Trovafloxacin-Resistant and Vancomycin-Resistant Enterococci; assay: In-vitro antimicrobial test, MIC by agar dilution (NCCLS): enterococci (Table 19); type: cell-based; conditions: for MIC: read-out: MIC, V R E 336
Excerpt: The comparative antimicrobial activity of representative compounds of the invention and reference compounds against various sensitive and resistant microorganisms is given in Tables 17 to 20. The test method was in accordance with the standard NCCLS protocol (Methods for Dilution Antimicrobial Susceptibility Tests for Bacteria that grow Aerobicially, Approved Standards, M7-A5, Fifth Edition, January 2000).
as §2

MRSA 5027 = type: cell-based
[4] = test system: Multidrug-Resistant (MDR) Pneumococcal Infections; assay: In-vivo antimicrobial test: systemic infection model (mouse septicemia), oral ED50 (Table 22); parameters: species or system Swiss mice; conditions: oral 1 hour and 5 hours post-infection, survival on day 7, strain resistant to β-lactams, macrolides and fluoroquinolones
Experimental: The in vivo efficacy was studied through mouse septicemia model of infection in Swiss male and female mice (4 weeks old, 20+2 g weight) using 6 animals in each group. Infective organisms were inoculated intraperitonially. Compound were administered by oral route 1 hour and 5 hours post-infection. […] Appropriate comparators were included in the study.

[5] = Phototoxicity, oral dose and UVA exposure, mice; conditions: UVA 4 hours for 4 consecutive days, dose causing ear erythema and oedema
Experimental: The stock solutions for different doses were prepared freshly on the day of experimentation. Appropriate concentration of each dose was chosen to give a constant dosage volume of 0.3-0.4 ml/20 g body weight of mouse. The treated mice were exposed to UVA light source immediately after dosing for 4 hours and for 4 consecutive days. The mean light intensity in the UVA chamber was adjusted to 0.9-1.2 mW/cm^2. The total irradiation dose was approximately 18 Joules/cm^2/day. A phototoxic dose is one which causes ear erythema and oeadema.

J 744 (mouse macrophage) = assay: Cytotoxicity test (Alamar blue), J 744 cells (Table 23); type: cell-based; conditions: minimum drug concentration inhibiting Alamar blue color change; 3 hrs drug exposure, then 96 hrs incubation; J 744 mouse macrophage cells
Experimental: (§3) Compounds were evaluated for their cytotoxic potential against two […] viz. […] Freshly grown cells were distributed in microtiter plates at a cell density of 10^5-10^6 cells/well and allowed to adhere and form monolayer by incubating the microtiter plate at 37° C. for 24 hrs. […] Following 3 hrs. of drug exposure, cells were washed with D-MEM and incubated further for 96 hrs. Cytotoxic effects of drugs were monitored through daily microscopic observation and by ascertaining the metabolic status through redox indicator Alamar blue. Healthy actively metabolising cells bring about colour change of Alamar blue from blue to pink within an overnight incubation. Cytotoxic drugs inhibit this reaction resulting into blue coloured wells. Minimum drug concentration inhibiting Alamar blue color change i.e. resulting into blue coloured wells for a given drug is considered cytotoxic concentration.

[6] = test system: V79 (Chinese Hamster Lung); assay: Cytotoxicity test (Alamar blue), V79 cells (Table 23); type: cell-based; conditions: minimum drug concentration inhibiting Alamar blue color change, 3 hrs drug exposure, then 96 hrs incubation
Experimental: as §3

[7] = test system: Clinical Isolate MRSA 5076 with Mutations in DNA Gyrase and Topoisomerase IV as well as bearing an Efflux Pump; type: cell-based
Experimental: as §1, §2

[8] = vancomycin-resistant Enterococcus faecium 336
[9] = Enterococcus faecalis, ATCC29212, E. faecalis ATCC 29212, read-out: MIC, E. faecalis ATCC 29212

Cc1c(N2CCC(O)C(C)C2)c(F)cc2c(=O)c(C(=O)O)cn(C3CC3)c12 (mixture of isomers) [Compound 84, cis/trans-1-Cyclopropyl-6-fluoro-8-methyl-7-(4-hydroxy-3-methyl-1-piperidinyl)-1,4-dihydro-4-oxo-quinoline-3-carboxylic acid]
MIC, E. coli ATCC 25922 [1]: 0.2 µg/mL | MIC, E. faecalis ATCC 29212 ([1]; E. faecalis ATCC 29212): 0.05 µg/mL | MIC, MSSA ATCC 25923 ([1]; MSSA ATCC 25923): 0.003 µg/mL | MIC, P. aeruginosa 27853 ([1]; P. aeruginosa 27853): 3.12 µg/mL | MIC, S. pneumoniae ATCC 49619 ([1]; S. pneumoniae ATCC 49619): 0.025 µg/mL | MIC, S. sanguis ATCC 10556 ([1]; S. sanguis ATCC 10556 (Viridans Streptococci)): 0.05 µg/mL | MIC, Cipro^R S. mitis 938 ([2]; Cipro^R S. mitis 938): 0.4 µg/mL | MIC, Cipro^R S. sanguis 941 [2]: 0.4 µg/mL | MIC, FQ^R S. pneumoniae 718 ([2]; FQ^R S. pneumoniae 718): 0.8 µg/mL | MIC, MRSA 032 ([2]; MRSA 032): 0.2 µg/mL | MIC, Trova-Resist MRSE 110 ([3]; Trovafloxacin-resistant methicillin-resistant S. epidermidis 110): 0.4 µg/mL | MIC, V R E 336 [3, 8]: 3.12 µg/mL

COc1c(N2CCC(N)C(C)(C)C2)c(F)cc2c(=O)c(C(=O)O)cn(C3CC3)c12 (racemic) [Compound 18, (±)-1-Cyclopropyl-6-fluoro-1,4-dihydro-8-mehtoxy-7-(4-amino-3,3-dimethyl-1-piperidinyl)-4-oxo-quinoline-3-carboxylic acid]
MIC, E. coli ATCC 25922 [1]: 0.2 µg/mL (≈ 0.496 µM) | MIC, Cipro^R S. sanguis 941 [2]: 0.4 µg/mL (≈ 0.991 µM) | MIC, FQ^R S. pneumoniae 718 ([2]; FQ^R S. pneumoniae 718): 0.8 µg/mL (≈ 1.98 µM) | MIC, MRSA 032 ([2]; MRSA 032): 0.8 µg/mL (≈ 1.98 µM) | MIC against MRSA 5027 after 10 passage in drug containing medium (MRSA 5027; after 10 passages): 0.4 µg/mL (≈ 0.991 µM) | MIC against MRSA 5027, initially (MRSA 5027; before passages in drug-containing medium): 0.4 µg/mL (≈ 0.991 µM) | ED50 p.o. MDR S. pneumoniae 718 [4]: 30 mg/kg | phototoxic dose [5]: greater than 500 mg/kg

Cc1c(N2CC[C@H](O)[C@H](C)C2)c(F)cc2c(=O)c(C(=O)O)cn(C3CC3)c12 (relative stereo) [Compound 85, cis-1-Cyclopropyl-6-fluoro-8-methyl-7-(4-hydroxy-3-methyl-1-piperidinyl)-1,4-dihydro-4-oxo-quinoline-3-carboxylic acid]
MIC [1, 9]: 0.1 µg/mL (≈ 0.267 µM) | MIC ([1]; S. sanguis ATCC 10556 (Viridans Streptococci), read-out: MIC, S. sanguis ATCC 10556): 0.025 µg/mL (≈ 0.0668 µM) | MIC [3, 8]: 3.12 µg/mL (≈ 8.33 µM) | Cytotoxic concentration, J 744 Macrophage (J 744 (mouse macrophage)): >1000 µg/mL | Cytotoxic concentration, V 79 CHL [6]: >1000 µg/mL

Cc1c(N2CC[C@@H](O)[C@H](C)C2)c(F)cc2c(=O)c(C(=O)O)cn(C3CC3)c12 (relative stereo) [Compound 86, trans-1-Cyclopropyl-6-fluoro-8-methyl-7-(4-hydroxy-3-methyl-1-piperidinyl)-1,4-dihydro-4-oxo-quinoline-3-carboxylic acid]
MIC [1, 9]: 0.05 µg/mL (≈ 0.134 µM) | MIC [3, 8]: 3.12 µg/mL (≈ 8.33 µM) | MIC, MRSA 5076 + efflux inhibitor reserpine [7]: 0.2 µg/mL | Cytotoxic concentration, J 744 Macrophage (J 744 (mouse macrophage)): >1000 µg/mL | Cytotoxic concentration, V 79 CHL [6]: >1000 µg/mL | melting point: 214 to 216 °C

COc1c(N2CCC(N)C(C)(C)C2)c(F)cc2c(=O)c(C(=O)O)cn(C3CC3)c12 (single isomer, unassigned; (+)) [Compound 19, (+)-1-Cyclopropyl-6-fluoro-1,4-dihydro-8-mehtoxy-7-(4-amino-3,3-dimethyl-1-piperidinyl)-4-oxo-quinoline-3-carboxylic acid]
MIC, E. coli ATCC 25922 [1]: 0.2 µg/mL (≈ 0.496 µM) | MIC, Cipro^R S. mitis 938 ([2]; Cipro^R S. mitis 938): 0.8 µg/mL (≈ 1.98 µM) | MIC, Cipro^R S. sanguis 941 [2]: 0.2 µg/mL (≈ 0.496 µM) | MIC, FQ^R S. pneumoniae 718 ([2]; FQ^R S. pneumoniae 718): 0.4 µg/mL (≈ 0.991 µM) | MIC, MRSA 032 ([2]; MRSA 032): 0.8 µg/mL (≈ 1.98 µM) | ED50 p.o. MDR S. pneumoniae 718 [4]: 20 mg/kg | phototoxic dose [5]: greater than 500 mg/kg

COc1c(N2CCC(N)C(C)(C)C2)c(F)cc2c(=O)c(C(=O)O)cn(C3CC3)c12 (single isomer, unassigned; (-)) [Compound 20, (−)-1-Cyclopropyl-6-fluoro-1,4-dihydro-8-mehtoxy-7-(4-amino-3,3-dimethyl-1-piperidinyl)-4-oxo-quinoline-3-carboxylic acid]
MIC, E. coli ATCC 25922 [1]: 0.2 µg/mL (≈ 0.496 µM) | MIC, Cipro^R S. sanguis 941 [2]: 0.4 µg/mL (≈ 0.991 µM) | MIC, FQ^R S. pneumoniae 718 ([2]; FQ^R S. pneumoniae 718): 0.8 µg/mL (≈ 1.98 µM) | MIC, MRSA 032 ([2]; MRSA 032): 0.8 µg/mL (≈ 1.98 µM) | ED50 p.o. MDR S. pneumoniae 718 [4]: 50 mg/kg | phototoxic dose [5]: greater than 500 mg/kg

Cc1c(N2CCC(N)C(C)(C)C2)c(F)cc2c(=O)c(C(=O)O)cn(C3CC3)c12 (single isomer, unassigned; (-)) [Compound 93, (−)-1-Cyclopropyl-6-fluoro-1,4-dihydro-8-methyl-7-(4-amino-3,3-dimethyl-1-piperidinyl)-4-oxo-quinoline-3-carboxylic acid]
MIC ([1]; Pseudomonas aeruginosa, P. aeruginosa 27853, read-out: MIC, P. aeruginosa 27853): 1.56 µg/mL (≈ 4.03 µM) | MIC ([2]; Staphylococcus aureus, MRSA, MRSA 032, read-out: MIC, MRSA 032): 0.4 µg/mL (≈ 1.03 µM) | MIC ([2]; Streptococcus mitis, Cipro^R S. mitis 938, read-out: MIC, Cipro^R S. mitis 938): 0.8 µg/mL (≈ 2.06 µM) | MIC ([2]; Streptococcus pneumoniae, FQ^R S. pneumoniae 718, read-out: MIC, FQ^R S. pneumoniae 718): 0.4 µg/mL (≈ 1.03 µM) | Cytotoxic concentration, J 744 Macrophage (J 744 (mouse macrophage)): 1000 µg/mL | Cytotoxic concentration, V 79 CHL [6]: 250 µg/mL

COc1c(N2CCC(NC(=O)OC(C)(C)C)C(C)(C)C2)c(F)cc2c(=O)c(C(=O)O)cn(C3CC3)c12 (stereo not shown) [Compound 23, 1-Cyclopropyl-6-fluoro-1,4-dihydro-8-methoxy-7-(4-t-butyloxycarbonylamino-3,3-dimethyl-1-piperidinyl)-4-oxo-quinoline-3-carboxylic acid]
melting point: 218 to 220 °C

C[C@@H]1CN(c2c(F)c(N)c3c(=O)c(C(=O)O)cn(C4CC4)c3c2F)C[C@H](C)N1 [sparfloxacin, reference compound]
phototoxic dose [5]: 25 mg/kg
